pIC50: −log10 of the molar value.
What was measured:
hCCR2b = biological target: T1, hCCR2b (Homo sapiens, UniProt P41597); test: CCR2 membrane binding assay (SPA, [125I] MCP-1); conditions: table does not name the assay; b437 says 'in these assays'
T1 construct: expressed in transfected cells; host or cells: CHO-dukX
T1 sequence (P41597 1-360 isoform P41597-2): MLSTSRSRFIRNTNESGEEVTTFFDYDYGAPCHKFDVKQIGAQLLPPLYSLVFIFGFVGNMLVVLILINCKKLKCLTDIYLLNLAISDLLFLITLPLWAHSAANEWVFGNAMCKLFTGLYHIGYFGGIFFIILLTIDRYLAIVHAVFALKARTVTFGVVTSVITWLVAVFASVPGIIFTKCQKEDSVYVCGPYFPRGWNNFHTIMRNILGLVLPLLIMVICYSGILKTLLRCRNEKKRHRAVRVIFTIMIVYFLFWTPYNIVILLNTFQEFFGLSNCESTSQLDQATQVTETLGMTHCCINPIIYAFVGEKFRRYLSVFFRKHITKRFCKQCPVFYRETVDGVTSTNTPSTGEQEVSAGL
Experimental: Transfected CHO-dukX cells stably expressing the hCCR2b gene are grown in MEM alpha medium to a confluency of between 70 and 80%. After discarding the medium, 30 ml ice-cold physiological buffer solution containing 1 mM EDTA are added and the cells removed from the plate using a scraper. The cell suspension is centrifuged at 800 g for 10′ at 4° C. and the cell pellet resuspended in buffer. Cell lysis is done using a Polytron PTI300D instrument at 28 000 RPM for 2 times 30 seconds on ice. Membranes are collected by centrifugation at 42 000 g for 20 minutes at 4° C. and subjected to a second round of lysis (Polytron, 28 000 RPM, 2×30 seconds on ice). Following centrifugation at 42 000 g for 20 minutes at 4° C. the membranes are resuspended in buffer at a protein concentration of 2 mg/ml and stored at −80° C. Ten millimolar stock solutions of test compounds in 100% DMSO are prepared. Test compounds are further diluted in buffer to yield the four-fold concentrated solutions for the tests that assayed a range of 10^−10 to 10^−5 M. The SPA assay is performed in a final volume of 200 μl per well in 96 well plates. The components are added per well in the following order: • 50 μl Buffer (+/−test compound) • 50 μl Wheat germ agglutinin-SPA beads (1.25 mg/well) in buffer • 50 μl CCR2B membrane suspension diluted with buffer to 0.04 mg/ml (2 μg/well), alternatively 50,000 cells per well • 50 μl [^125I] MCP-1 in buffer (60 pM final concentration, 2.5 μCi/plate)
After addition of all components the plate is sealed and incubated for 90 minutes at room temperature with constant shaking. Following incubation the plate is centrifuged at 1000 RPM in a Sorvall RC3B centrifuge for 4 minutes at room temperature and counted for 3 minutes per well in a TOP COUNT instrument (Packard). The quench-corrected counts are used for the analysis of radioligand binding.

Human CCR5 = biological target: T2, Human CCR5 (Homo sapiens, UniProt P51681); test: CCR5 membrane binding assay ([I-125]MIP-1α); conditions: table does not name the assay; b437 says 'in these assays'
T2 construct: expressed in transfected cells; host or cells: CHO K1
T2 sequence (P51681 whole entry): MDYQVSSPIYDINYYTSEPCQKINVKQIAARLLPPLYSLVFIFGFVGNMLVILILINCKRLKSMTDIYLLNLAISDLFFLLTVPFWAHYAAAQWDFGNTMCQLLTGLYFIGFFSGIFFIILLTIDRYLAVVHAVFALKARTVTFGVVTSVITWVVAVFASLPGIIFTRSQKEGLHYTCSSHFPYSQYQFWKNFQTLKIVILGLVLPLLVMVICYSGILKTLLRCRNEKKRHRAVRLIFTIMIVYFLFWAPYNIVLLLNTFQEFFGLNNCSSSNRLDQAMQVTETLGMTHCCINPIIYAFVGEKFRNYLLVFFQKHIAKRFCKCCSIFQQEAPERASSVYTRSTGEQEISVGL
Experimental: Human CCR5 is used to generate stable transfectants in CHO K1 cells. Membranes prepared from these CCR5 transfectants are used in a radioligand binding assay using 125-1-MIP-1α as a ligand and the compounds of formula I are tested for inhibitory activity. The data are reported as IC50, i.e. the concentration of compound required to achieve 50% inhibition of [I-125]MIP-1α binding. In this assay, compounds of formula I have an IC50 between 0.004 and 10 μM.

CCR2 receptor = test: Receptor occupancy of the CCR2 receptor over time (blood monocytes, FACS); type: in vivo; conditions: dose 10 mg/kg
Experimental: The Agents of the Invention typically have a favourable pharmacokinetic profile, i.e. such as a relatively fast elimination over time. A faster elimination is typically indicative for an improved tolerability or is typically associable with less side effects. Such may be assessed by determining for example the receptor occupancy of the CCR2 receptor over time.
Receptor occupancy assaying may be performed in 96-well plates. 45 microliters of freshly obtained blood samples are incubated with 5 microliter of a MCP-1 solution (several concentrations for assessing a biding curve). The concentration of said MCP-1 solution is from 0.01 to 100 nanomolar, whereby the dilutions are made in RPMI1640 with glutamax supplemented with 1% nonessential amino acids, sodium pyruvate, penicillin/streptomycin, […] beta-mercaptoethanol and 1% human albumin.
Said incubation is carried out for 30 min at 37° C., and is then stopped by adding 180 microliter BD FACS lysis solution followed by centrifugation. Said lysis addition and centrifugation is repeated once and the remaining cells are then washed with ice cold FACS buffer ([…] containing 2% FCS and 0.1% NaN3). Thereupon, the cells are stained with antibodies for FACS analysis.
The cells are now triple stained with FITC-conjugated anti-CD14, PE-conjugated anti-HLA-DR and APC-conjugated anti-CCR2. The antibodies are diluted into FACS buffer, supplemented with 3 mg/ml juman IgG, and the staining is performed in a total of 25 microliter for 30 min. on ice. The stained cells are washed twice with cold FACS buffer and then analyzed by flow cytometry using a FACScalibur and CellQuest software. The expression of CCR2 on CD-14- and HLA-DR-positive monocytes is determined and expressed as mean fluorescence intensity (MFI). The relative CCR2 expression is expressed as percent of control staining.

Row | Compound | pIC50 (hCCR2b) | pIC50 (Human CCR5) | Receptor blockade After 2 hrs in % (CCR2 receptor) | Receptor blockade After 24 hrs in % (CCR2 receptor)
1 | CC(C)OCCOc1ccc2c(COc3cccc4[nH]c(C(=O)N[C@H]5CC[C@](O)(CCN6CC[C@H](O)[C@@H](C)C6)CC5)cc34)coc2c1 [Example 18, 4-[6-(2-Isopropoxy-ethoxy)-benzofuran-3-ylmethoxy]-1H-indole-2-carboxylic acid {4-hydroxy-4-[2-((3S,4S)-4-hydroxy-3-methyl-piperidin-1-yl)-ethyl]-cyclohexyl}-amide] | 9.70 | 8.48 | 88.2% | 43.5%
2 | CCOCCOc1ccc2c(COc3cccc4[nH]c(C(=O)N[C@H]5CC[C@](O)(CCN6CC[C@H](O)[C@@H](C)C6)CC5)cc34)coc2c1 [Example 16, 4-[6-(2-Ethoxy-ethoxy)-benzofuran-3-ylmethoxy]-1H-indole-2-carboxylic acid {4-hydroxy-4-[2-((3S,4S)-4-hydroxy-3-methyl-piperidin-1-yl)-ethyl]-cyclohexyl}-amide] | 9.10 | 8.54 | 78.1% | 21.6%
3 | C[C@H]1CN(CC[C@]2(O)CC[C@@H](NC(=O)c3cc4c(OCc5coc6cc(OCC7CC7)ccc56)cccc4[nH]3)CC2)CC[C@@H]1O [Example 15, 4-(6-Cyclopropylmethoxy-benzofuran-3-ylmethoxy)-1H-indole-2-carboxylic acid {4-hydroxy-4-[2-((3S,4S)-4-hydroxy-3-methyl-piperidin-1-yl)-ethyl]-cyclohexyl}-amide] | 9.40 | 8.32 | 103.2% | 42.6%
